{
  "source": "ChEMBL document CHEMBL1921749",
  "about": "“5-Lipoxygenase-activating protein (FLAP) inhibitors. Part 4: development of 3-[3-tert-butylsulfanyl-1-[4-(6-ethoxypyridin-3-yl)benzyl]-5-(5-methylpyridin-2-ylmethoxy)-1H-indol-2-yl]-2,2-dimethylpropionic acid (AM803), a potent, oral, once daily FLAP inhibitor” (J Med Chem, 2011)",
  "data": [
    {"target": "T1, Arachidonate 5-lipoxygenase-activating protein (Homo sapiens, UniProt P20292)", "T1 sequence (P20292 whole entry)": "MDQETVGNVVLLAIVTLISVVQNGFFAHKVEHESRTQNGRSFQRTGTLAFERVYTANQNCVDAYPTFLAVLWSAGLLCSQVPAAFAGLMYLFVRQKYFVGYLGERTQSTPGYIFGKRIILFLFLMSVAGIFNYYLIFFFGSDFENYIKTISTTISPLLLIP", "experiment": "Inhibition of FLAP in human whole blood assessed as inhibition of calcium ionophore A23187-induced LTB4 production preincubated for 5 hrs by ELISA", "units": {"IC50": "nM"}, "values": [
      {"smiles": "CCOc1ccc(-c2ccc(Cn3c(CC(C)(C)C(=O)O)c(C(=O)CC(C)(C)C)c4cc(OCc5ccc(C)cn5)ccc43)cc2)cn1", "IC50": 2000},
      {"smiles": "COc1ccc(-c2ccc(Cn3c(CC(C)(C)C(=O)O)c(SC(C)(C)C)c4cc(OCc5cccc(C)n5)ccc43)cc2)cn1", "IC50": 359},
      {"smiles": "Cc1ccc(COc2ccc3c(c2)c(SC(C)(C)C)c(CC(C)(C)C(=O)O)n3Cc2ccc(-c3ccc(C(F)(F)F)nc3)cc2)nc1", "IC50": 180},
      {"smiles": "CCOc1ccc(-c2ccc(Cn3c(CC(C)(C)C(=O)O)c(SC(C)(C)C)c4cc(OCc5ccc(C)c[n+]5[O-])ccc43)cc2)cn1", "IC50": 1390},
      {"smiles": "COc1ccc(COc2ccc3c(c2)c(SC(C)(C)C)c(CC(C)(C)C(=O)O)n3Cc2ccc(-c3ccc(OC)nc3)cc2)nc1", "IC50": 652}
    ]},
    {"target": "Prostaglandin G/H synthase 1 (Homo sapiens, UniProt P23219)", "sequence (P23219 whole entry)": "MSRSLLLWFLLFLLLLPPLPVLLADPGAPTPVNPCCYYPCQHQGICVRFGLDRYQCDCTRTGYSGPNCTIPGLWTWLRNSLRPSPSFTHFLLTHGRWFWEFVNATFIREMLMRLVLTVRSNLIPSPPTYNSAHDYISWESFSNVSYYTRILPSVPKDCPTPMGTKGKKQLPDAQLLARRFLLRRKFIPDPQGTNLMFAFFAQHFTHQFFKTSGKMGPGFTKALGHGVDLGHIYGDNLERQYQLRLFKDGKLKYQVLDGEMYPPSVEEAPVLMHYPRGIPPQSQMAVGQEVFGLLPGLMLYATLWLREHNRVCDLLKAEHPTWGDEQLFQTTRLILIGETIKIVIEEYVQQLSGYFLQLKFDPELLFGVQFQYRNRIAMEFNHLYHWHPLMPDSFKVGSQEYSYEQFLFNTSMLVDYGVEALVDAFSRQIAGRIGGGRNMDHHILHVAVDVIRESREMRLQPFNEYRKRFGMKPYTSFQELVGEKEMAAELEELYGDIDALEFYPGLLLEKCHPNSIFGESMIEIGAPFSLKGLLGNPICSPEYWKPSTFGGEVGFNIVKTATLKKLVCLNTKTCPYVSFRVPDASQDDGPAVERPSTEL", "experiment": "Inhibition of COX1-mediated TXB2 production in human whole blood after 30 mins by competitive enzyme immunoassay", "units": {"IC50": "nM"}, "values": [
      {"smiles": "CCOc1cccc(-c2ccc(Cn3c(CC(C)(C)C(=O)O)c(SC(C)(C)C)c4cc(OCc5ccc(C)cn5)ccc43)cc2)n1", "IC50": 620},
      {"smiles": "Cc1ccc(COc2ccc3c(c2)c(SC(C)(C)C)c(CC(C)(C)C(=O)O)n3Cc2ccc(-c3ccc(F)cn3)cc2)nc1", "IC50": "> 30000"},
      {"smiles": "Cc1ccc(COc2ccc3c(c2)c(SC(C)(C)C)c(CC(C)(C)C(=O)O)n3Cc2ccc(-c3cc(C(F)(F)F)ccn3)cc2)nc1", "IC50": 18000},
      {"smiles": "Cc1ccc(COc2ccc3c(c2)c(SC(C)(C)C)c(CC(C)(C)C(=O)O)n3Cc2ccc(-c3ccccn3)cc2)nc1", "IC50": 9000},
      {"smiles": "Cc1ccc(COc2ccc3c(c2)c(SC(C)(C)C)c(CC(C)(C)C(=O)O)n3Cc2ccc(-c3cncc(F)c3)cc2)nc1", "IC50": 3200}
    ]},
    {"target": "T1, Arachidonate 5-lipoxygenase-activating protein", "experiment": "Inhibition of FLAP in human peripheral leukocytes assessed as inhibition of calcium ionophore A23187-induced LTB4 production after 10 mins by ELISA", "type": "cell-based", "units": {"IC50": "nM"}, "values": [
      {"smiles": "CCOc1cccc(-c2ccc(Cn3c(CC(C)(C)C(=O)O)c(SC(C)(C)C)c4cc(OCc5ccc(C)cn5)ccc43)cc2)n1", "IC50": 0.6},
      {"smiles": "Cc1ccc(COc2ccc3c(c2)c(SC(C)(C)C)c(CC(C)(C)C(=O)O)n3Cc2ccc(-c3cc(C(F)(F)F)ccn3)cc2)nc1", "IC50": 0.4},
      {"smiles": "Cc1ccc(COc2ccc3c(c2)c(SC(C)(C)C)c(CC(C)(C)C(=O)O)n3Cc2ccc(-c3ccccn3)cc2)nc1", "IC50": 0.6},
      {"smiles": "CCOc1ccc(-c2ccc(Cn3c(CC(C)(C)C(=O)O)c(C(=O)CC(C)(C)C)c4cc(OCc5ccc(C)cn5)ccc43)cc2)cn1", "IC50": 1.5},
      {"smiles": "Cc1ccc(COc2ccc3c(c2)c(SC(C)(C)C)c(CC(C)(C)C(=O)O)n3Cc2ccc(-c3cncc(F)c3)cc2)nc1", "IC50": 0.6},
      {"smiles": "COc1ccc(-c2ccc(Cn3c(CC(C)(C)C(=O)O)c(SC(C)(C)C)c4cc(OCc5cccc(C)n5)ccc43)cc2)cn1", "IC50": 0.5},
      {"smiles": "Cc1ccc(COc2ccc3c(c2)c(SC(C)(C)C)c(CC(C)(C)C(=O)O)n3Cc2ccc(-c3ccc(C(F)(F)F)nc3)cc2)nc1", "IC50": 0.4},
      {"smiles": "CCOc1ccc(-c2ccc(Cn3c(CC(C)(C)C(=O)O)c(SC(C)(C)C)c4cc(OCc5ccc(C)c[n+]5[O-])ccc43)cc2)cn1", "IC50": 4.6},
      {"smiles": "COc1ccc(COc2ccc3c(c2)c(SC(C)(C)C)c(CC(C)(C)C(=O)O)n3Cc2ccc(-c3ccc(OC)nc3)cc2)nc1", "IC50": 0.7}
    ]},
    {"target": "T1, Arachidonate 5-lipoxygenase-activating protein", "experiment": "Inhibition of FLAP in human whole blood assessed as inhibition of calcium ionophore A23187-induced LTB4 production preincubated for 15 mins by ELISA", "units": {"IC50": "nM"}, "values": [
      {"smiles": "CCOc1cccc(-c2ccc(Cn3c(CC(C)(C)C(=O)O)c(SC(C)(C)C)c4cc(OCc5ccc(C)cn5)ccc43)cc2)n1", "IC50": 556},
      {"smiles": "Cc1ccc(COc2ccc3c(c2)c(SC(C)(C)C)c(CC(C)(C)C(=O)O)n3Cc2ccc(-c3cc(C(F)(F)F)ccn3)cc2)nc1", "IC50": 452},
      {"smiles": "Cc1ccc(COc2ccc3c(c2)c(SC(C)(C)C)c(CC(C)(C)C(=O)O)n3Cc2ccc(-c3ccccn3)cc2)nc1", "IC50": 285},
      {"smiles": "CCOc1ccc(-c2ccc(Cn3c(CC(C)(C)C(=O)O)c(C(=O)CC(C)(C)C)c4cc(OCc5ccc(C)cn5)ccc43)cc2)cn1", "IC50": 1580},
      {"smiles": "Cc1ccc(COc2ccc3c(c2)c(SC(C)(C)C)c(CC(C)(C)C(=O)O)n3Cc2ccc(-c3cncc(F)c3)cc2)nc1", "IC50": 225},
      {"smiles": "COc1ccc(-c2ccc(Cn3c(CC(C)(C)C(=O)O)c(SC(C)(C)C)c4cc(OCc5cccc(C)n5)ccc43)cc2)cn1", "IC50": 535},
      {"smiles": "Cc1ccc(COc2ccc3c(c2)c(SC(C)(C)C)c(CC(C)(C)C(=O)O)n3Cc2ccc(-c3ccc(C(F)(F)F)nc3)cc2)nc1", "IC50": 401},
      {"smiles": "CCOc1ccc(-c2ccc(Cn3c(CC(C)(C)C(=O)O)c(SC(C)(C)C)c4cc(OCc5ccc(C)c[n+]5[O-])ccc43)cc2)cn1", "IC50": 873},
      {"smiles": "COc1ccc(COc2ccc3c(c2)c(SC(C)(C)C)c(CC(C)(C)C(=O)O)n3Cc2ccc(-c3ccc(OC)nc3)cc2)nc1", "IC50": 688}
    ]},
    {"target": "T1, Arachidonate 5-lipoxygenase-activating protein", "experiment": "Displacement of [3H]-3-[5-(pyrid-2-ylmethoxy)-3-tert-butylthio-1-benzylindol-2-yl]-2,2-dimethylpropionic acid from FLAP in human polymorphonuclear cell membranes after 1 hr by scintillation counting", "units": {"IC50": "nM"}, "values": [
      {"smiles": "CCOc1cccc(-c2ccc(Cn3c(CC(C)(C)C(=O)O)c(SC(C)(C)C)c4cc(OCc5ccc(C)cn5)ccc43)cc2)n1", "IC50": 1.4},
      {"smiles": "Cc1ccc(COc2ccc3c(c2)c(SC(C)(C)C)c(CC(C)(C)C(=O)O)n3Cc2ccc(-c3cc(C(F)(F)F)ccn3)cc2)nc1", "IC50": 2.1},
      {"smiles": "Cc1ccc(COc2ccc3c(c2)c(SC(C)(C)C)c(CC(C)(C)C(=O)O)n3Cc2ccc(-c3ccccn3)cc2)nc1", "IC50": 1.3},
      {"smiles": "CCOc1ccc(-c2ccc(Cn3c(CC(C)(C)C(=O)O)c(C(=O)CC(C)(C)C)c4cc(OCc5ccc(C)cn5)ccc43)cc2)cn1", "IC50": 29.3},
      {"smiles": "Cc1ccc(COc2ccc3c(c2)c(SC(C)(C)C)c(CC(C)(C)C(=O)O)n3Cc2ccc(-c3cncc(F)c3)cc2)nc1", "IC50": 2.1},
      {"smiles": "COc1ccc(-c2ccc(Cn3c(CC(C)(C)C(=O)O)c(SC(C)(C)C)c4cc(OCc5cccc(C)n5)ccc43)cc2)cn1", "IC50": 3.1},
      {"smiles": "Cc1ccc(COc2ccc3c(c2)c(SC(C)(C)C)c(CC(C)(C)C(=O)O)n3Cc2ccc(-c3ccc(C(F)(F)F)nc3)cc2)nc1", "IC50": 3.2},
      {"smiles": "CCOc1ccc(-c2ccc(Cn3c(CC(C)(C)C(=O)O)c(SC(C)(C)C)c4cc(OCc5ccc(C)c[n+]5[O-])ccc43)cc2)cn1", "IC50": 89.5},
      {"smiles": "COc1ccc(COc2ccc3c(c2)c(SC(C)(C)C)c(CC(C)(C)C(=O)O)n3Cc2ccc(-c3ccc(OC)nc3)cc2)nc1", "IC50": 8}
    ]}
  ]
}
